Test results published in ChEMBL document CHEMBL5537167, “Rising Star in Immunotherapy: Development and Therapeutic Potential of Small-Molecule Inhibitors Targeting Casitas B Cell Lymphoma-b (Cbl-b)” (J Med Chem, 2024).
One block for each compound: values may come before it.

How the values were obtained:
[1] = Metabolic stability in mouse liver microsomes assessed as intrinsic clearance
[2] = Metabolic stability in human liver microsomes assessed as intrinsic clearance
[3] = biological target: T1, E3 ubiquitin-protein ligase CBL-B (Homo sapiens, UniProt Q13191); assay: Inhibition of Cbl-b (unknown origin) by Cellular substrate assay
in vitro = settings: rat, plasma
[4] = biological target: T1, E3 ubiquitin-protein ligase CBL-B; assay: Inhibition of CBL-B (unknown origin) by FRET assay
[5] = biological target: T1, E3 ubiquitin-protein ligase CBL-B
Description: Inhibition of N-terminal biotinylated Avi-tagged Cbl-b (36 to 427 residues) (unknown origin) by SPR assay

[6] = biological target: T1, E3 ubiquitin-protein ligase CBL-B; assay: Inhibition of CBL-B (unknown origin) by biochemical assay
[7] = test system: Panel NCI-60 (60 carcinoma cell lines); assay: Anti-proliferative activity against human Panel NCI-60 (60 carcinoma cell lines)
[8] = biological target: T1, E3 ubiquitin-protein ligase CBL-B; assay: Inhibition of Cbl-b (unknown origin) using fluorophore-labeled probe by TR-FRET based Cb1-b displacement assay
[9] = biological target: T1, E3 ubiquitin-protein ligase CBL-B; assay: Inhibition of Cbl-b (unknown origin) by TR-FRET assay

T1 sequence (Q13191 whole entry): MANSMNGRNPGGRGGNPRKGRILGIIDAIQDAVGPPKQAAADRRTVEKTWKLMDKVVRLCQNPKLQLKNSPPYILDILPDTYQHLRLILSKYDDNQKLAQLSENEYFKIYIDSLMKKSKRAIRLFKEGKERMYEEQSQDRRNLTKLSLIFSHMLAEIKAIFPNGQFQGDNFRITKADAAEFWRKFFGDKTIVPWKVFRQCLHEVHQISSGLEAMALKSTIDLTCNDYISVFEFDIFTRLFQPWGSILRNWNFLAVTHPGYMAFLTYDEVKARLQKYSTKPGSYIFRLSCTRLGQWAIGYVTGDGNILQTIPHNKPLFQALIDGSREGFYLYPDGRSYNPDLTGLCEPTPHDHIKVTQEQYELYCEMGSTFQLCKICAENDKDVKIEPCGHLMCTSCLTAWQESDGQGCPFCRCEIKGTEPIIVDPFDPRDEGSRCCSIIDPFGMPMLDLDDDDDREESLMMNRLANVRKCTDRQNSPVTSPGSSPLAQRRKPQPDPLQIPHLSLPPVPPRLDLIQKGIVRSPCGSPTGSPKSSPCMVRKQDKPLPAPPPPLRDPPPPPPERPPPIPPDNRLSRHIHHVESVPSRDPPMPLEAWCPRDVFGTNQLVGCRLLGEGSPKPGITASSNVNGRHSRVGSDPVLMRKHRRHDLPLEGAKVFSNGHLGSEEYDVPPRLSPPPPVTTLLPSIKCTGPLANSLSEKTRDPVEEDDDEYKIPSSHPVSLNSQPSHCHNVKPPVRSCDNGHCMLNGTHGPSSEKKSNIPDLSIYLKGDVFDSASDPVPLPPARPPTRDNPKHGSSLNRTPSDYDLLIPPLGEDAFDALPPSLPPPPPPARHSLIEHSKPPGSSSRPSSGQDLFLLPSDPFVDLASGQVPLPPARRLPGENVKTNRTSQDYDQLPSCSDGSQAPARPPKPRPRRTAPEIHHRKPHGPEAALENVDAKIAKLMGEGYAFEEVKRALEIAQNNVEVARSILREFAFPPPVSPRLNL

CLint scaled [1]: 26 mL/min/kg | CLint scaled [2]: 7 mL/min/kg | IC50 [3]: 790 nM | half-life (in vitro): > 16.7 h
SMILES: Cc1cc(C(=O)Nc2cccc(C3(Cc4nncn4C)COC3)c2)nc(C2CC2)n1

CLint scaled [1]: 67 mL/min/kg | IC50 [3]: 780 nM | IC50 [4]: 38 nM | half-life (in vitro): 2.72 h
SMILES: Cc1cc(C(=O)Nc2cccc([C@H](C)Cc3nncn3C)c2)nc(C2CC2)n1

CLint scaled [1]: 73 mL/min/kg | CLint scaled [2]: 30 mL/min/kg | IC50 [3]: 1700 nM | IC50 [4]: 88 nM
SMILES: C[C@H](Cc1nncn1C)c1cccc(NC(=O)c2ccnc(C3CC3)n2)c1

IC50 [5]: < 100 nM
SMILES: Cc1cc(C(=O)Nc2cccc(C3(Cc4nocc4C)COC3)c2)nc(C2CC2)n1

IC50 [4]: 92 nM
SMILES: C[C@H](Sc1nncn1C)c1cccc(NC(=O)c2ccnc(C3CC3)n2)c1

IC50 [4]: ≤ 5 nM
SMILES: C[C@H]1CCCN(Cc2cc3c(c(C(F)(F)F)c2)CN(c2cccc([C@]4(c5nncn5C)C[C@@H](C)C4)c2)C3=O)C1

IC50 [6]: 167000 nM
SMILES: CN(C)c1c2c(c3nc4ccccc4c4c3c1N=C4)NCCC2=O
GI50 [7]: 180 nM

IC50 [5]: < 1 nM
SMILES: C[C@H]1CCCN(Cc2cc3c(c(C(F)(F)F)c2)CN(c2cccc([C@]4(Cc5nncn5C)C[C@@H](C#N)C4)c2)C3=O)C1

IC50 [5]: 1 nM
SMILES: Cn1cnnc1CC1(c2cccc(N3Cc4c(cc(CN5CCCC(CC#N)C5)cc4C(F)(F)F)C3=O)c2)COC1 (stereo unspecified)

IC50 [8]: < 100 nM
SMILES: C[C@H](Cc1nncn1C)c1cccc(NC(=O)N2CCOc3cccnc32)c1

IC50 [9]: < 100000 nM
SMILES: Cn1cnnc1CC1(c2cccc(-n3cc4c(C(F)(F)F)cc(CN5CCC6(CC6)C5)cn4c3=O)c2)COC1

IC50 [9]: < 100000 nM
SMILES: Cn1cnnc1[C@H](c1cccc(-n2cc3c(C(F)(F)F)cc(CN4CCC[C@@](C)(O)C4)cn3c2=O)c1)C1CCC1

IC50 [5]: ≤ 5 nM
SMILES: C[C@@H]1CN(Cc2cc3c(c(C(F)(F)F)c2)CN(c2cccc(C4(c5nncn5C)CC(F)(F)C4)c2)C3=O)CCO1

IC50 [6]: 9700 nM
SMILES: CN(C)c1c2c(c3nc4ccccc4c4c3c1N=C4N1C(=O)c3c4c(nc5ccccc35)C3=C(C(=O)CCN3)C(=[N+](C)C)C41)NCCC2=O (stereo in doubt; (+)-8)
GI50 [7]: > 30000 nM

IC50 [6]: 7500 nM
SMILES: CN(C)c1c2c(c3nc4ccccc4c4c3c1N=C4N1C(=O)c3c4c(nc5ccccc35)C3=C(C(=O)CCN3)C(=[N+](C)C)C41)NCCC2=O (stereo in doubt; (-)-8)
